Experiment [1] addresses Mitogen-activated protein kinase 3 (Homo sapiens, UniProt P27361). As to the kind of experiment: Selectivity interaction (Upstate Kinase Profiler service (Millipore)) EUB0000056c MAPK3. As to conditions: at 1 µM.
The target of experiment [2] is Serine/threonine-protein kinase mTOR (Homo sapiens, UniProt P42345). As to conditions: at 10 µM.
Experiment [3] has as its target Calcium/calmodulin-dependent protein kinase type II subunit gamma (Homo sapiens) (UniProt Q13555). The experiment can be described thus: Selectivity interaction (KinomeScan (DiscoverX)) EUB0001049a CAMK2G. As to conditions: at 1 µM.
For experiment [4], the target named is 1-phosphatidylinositol 3-phosphate 5-kinase (Homo sapiens) (UniProt Q9Y2I7). The experiment can be described thus: Selectivity interaction (KinomeScan (DiscoverX)) EUB0001049a PIKFYVE. As to conditions: at 1 µM.
Experiment [5] addresses T1, NUAK family SNF1-like kinase 2 (Homo sapiens) (UniProt Q9H093).
T1 sequence (whole entry): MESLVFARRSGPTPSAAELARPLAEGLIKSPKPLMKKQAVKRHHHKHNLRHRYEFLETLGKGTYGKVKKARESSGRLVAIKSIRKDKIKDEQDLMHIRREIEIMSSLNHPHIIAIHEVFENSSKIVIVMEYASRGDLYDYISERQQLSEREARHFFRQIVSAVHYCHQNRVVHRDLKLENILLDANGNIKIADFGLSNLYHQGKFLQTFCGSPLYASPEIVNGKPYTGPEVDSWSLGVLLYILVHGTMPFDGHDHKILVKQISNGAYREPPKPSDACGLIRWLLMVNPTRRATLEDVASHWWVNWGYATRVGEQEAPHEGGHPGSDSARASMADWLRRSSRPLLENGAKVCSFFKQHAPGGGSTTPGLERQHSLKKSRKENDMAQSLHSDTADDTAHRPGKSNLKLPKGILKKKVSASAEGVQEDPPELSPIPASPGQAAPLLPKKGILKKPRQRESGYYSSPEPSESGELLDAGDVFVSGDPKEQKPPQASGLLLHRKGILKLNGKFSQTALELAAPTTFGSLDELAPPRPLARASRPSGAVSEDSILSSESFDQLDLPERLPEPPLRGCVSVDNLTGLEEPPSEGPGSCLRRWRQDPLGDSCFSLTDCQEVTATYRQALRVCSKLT
As to the kind of experiment: Selectivity interaction (KinomeScan (DiscoverX)) EUB0000695a NUAK2. As to conditions: at 100 nM.

Experiment [6] addresses T2, Testis-specific serine/threonine-protein kinase 1 (Homo sapiens) (UniProt Q9BXA7).
T2 sequence (whole entry): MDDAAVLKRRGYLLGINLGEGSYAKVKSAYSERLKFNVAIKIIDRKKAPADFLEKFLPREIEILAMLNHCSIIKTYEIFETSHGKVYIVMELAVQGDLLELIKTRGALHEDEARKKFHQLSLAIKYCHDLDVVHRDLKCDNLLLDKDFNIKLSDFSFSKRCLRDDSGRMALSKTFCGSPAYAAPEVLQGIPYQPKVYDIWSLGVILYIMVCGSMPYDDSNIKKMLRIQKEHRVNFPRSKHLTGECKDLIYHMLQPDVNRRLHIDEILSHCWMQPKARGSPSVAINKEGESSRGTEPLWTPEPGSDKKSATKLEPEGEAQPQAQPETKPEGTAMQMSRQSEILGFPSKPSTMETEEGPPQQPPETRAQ
The experiment can be described thus: Selectivity interaction (KinomeScan (DiscoverX)) EUB0000045b TSSK1A.

Experiment [7] deals with Tyrosine-protein kinase Blk (Homo sapiens) (UniProt P51451). As to the kind of experiment: Selectivity interaction (SelectScreen profiling (Invitrogen)) EUB0000607a BLK. As to conditions: at 2 µM.
Tyrosine-protein kinase Blk (Homo sapiens), sequence (P51451 2-505 limits assumed): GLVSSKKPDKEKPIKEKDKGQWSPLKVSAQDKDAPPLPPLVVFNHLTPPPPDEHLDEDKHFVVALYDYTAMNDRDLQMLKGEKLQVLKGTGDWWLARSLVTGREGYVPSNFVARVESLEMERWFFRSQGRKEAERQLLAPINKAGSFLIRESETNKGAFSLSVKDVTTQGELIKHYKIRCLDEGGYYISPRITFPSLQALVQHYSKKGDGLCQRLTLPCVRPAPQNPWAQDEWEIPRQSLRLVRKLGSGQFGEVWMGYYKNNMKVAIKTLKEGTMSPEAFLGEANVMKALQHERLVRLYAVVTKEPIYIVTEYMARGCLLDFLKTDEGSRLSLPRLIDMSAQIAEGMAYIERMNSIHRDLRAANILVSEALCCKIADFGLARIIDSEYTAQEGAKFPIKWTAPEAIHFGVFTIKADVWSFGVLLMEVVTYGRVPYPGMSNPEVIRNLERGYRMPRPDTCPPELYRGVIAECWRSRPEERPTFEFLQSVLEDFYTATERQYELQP
In experiment [8] the target is Myosin light chain kinase, smooth muscle (Homo sapiens, UniProt Q15746). The experiment can be described thus: Selectivity interaction (KinomeScan (DiscoverX)) EUB0000607a MYLK. As to conditions: at 10 µM.
Experiment [9] has as its target Serine/threonine-protein kinase VRK2 (Homo sapiens) (UniProt Q86Y07). As to the kind of experiment: Selectivity interaction (ActivX KiNativ screen (kinase selectivity in THP-1 cell lysates)) EUB0000639a VRK2. The experiment is classed as subcellular. As to conditions: lysate.
The target of experiment [10] is Serine/threonine-protein kinase WNK1 (Homo sapiens) (UniProt Q9H4A3). The experiment can be described thus: Selectivity interaction (ActivX KiNativ screen (kinase selectivity in THP-1 cell lysates)) EUB0000639a WNK1. Type of experiment: subcellular. As to conditions: lysate, at 1 µM.
The target of experiment [11] is Mitogen-activated protein kinase kinase kinase 9 (Homo sapiens) (UniProt P80192). As to the kind of experiment: Selectivity interaction (Kinase panel (Invitrogen)) EUB0000639a MAP3K9. As to conditions: at 200 nM.
Mitogen-activated protein kinase kinase kinase 9 (Homo sapiens), sequence (P80192 whole entry, looked up): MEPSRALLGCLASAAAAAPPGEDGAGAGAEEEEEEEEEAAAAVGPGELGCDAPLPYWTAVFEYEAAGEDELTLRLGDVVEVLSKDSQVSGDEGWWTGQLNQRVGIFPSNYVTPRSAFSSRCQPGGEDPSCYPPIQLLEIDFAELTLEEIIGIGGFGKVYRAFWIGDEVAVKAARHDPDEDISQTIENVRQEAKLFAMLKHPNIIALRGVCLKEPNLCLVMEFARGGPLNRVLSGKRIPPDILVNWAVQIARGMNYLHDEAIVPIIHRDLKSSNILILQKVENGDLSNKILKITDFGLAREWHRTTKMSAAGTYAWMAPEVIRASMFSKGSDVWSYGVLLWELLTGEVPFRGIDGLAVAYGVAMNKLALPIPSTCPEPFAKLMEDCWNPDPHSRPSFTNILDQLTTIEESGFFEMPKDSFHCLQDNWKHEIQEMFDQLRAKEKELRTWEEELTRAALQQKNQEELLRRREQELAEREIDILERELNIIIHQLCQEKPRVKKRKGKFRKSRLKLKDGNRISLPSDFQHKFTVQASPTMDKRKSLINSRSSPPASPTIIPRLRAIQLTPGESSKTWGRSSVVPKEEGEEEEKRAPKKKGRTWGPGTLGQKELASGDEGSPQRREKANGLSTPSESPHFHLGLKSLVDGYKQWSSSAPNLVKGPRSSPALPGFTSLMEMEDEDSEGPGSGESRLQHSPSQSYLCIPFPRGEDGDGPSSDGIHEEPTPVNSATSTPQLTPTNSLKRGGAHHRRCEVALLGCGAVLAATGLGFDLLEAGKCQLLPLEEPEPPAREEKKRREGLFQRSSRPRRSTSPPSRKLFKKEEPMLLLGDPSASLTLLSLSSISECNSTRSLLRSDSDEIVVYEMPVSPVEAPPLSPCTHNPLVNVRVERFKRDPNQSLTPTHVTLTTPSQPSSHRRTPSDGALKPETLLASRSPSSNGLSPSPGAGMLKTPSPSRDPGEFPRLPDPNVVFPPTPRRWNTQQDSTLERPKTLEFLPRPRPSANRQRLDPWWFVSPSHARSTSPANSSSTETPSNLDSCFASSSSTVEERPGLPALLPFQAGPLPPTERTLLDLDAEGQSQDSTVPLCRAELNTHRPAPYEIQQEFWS
Experiment [12] has as its target Mitogen-activated protein kinase 1 (Homo sapiens, UniProt P28482).
Experiment [13] addresses Transcription intermediary factor 1-alpha (Homo sapiens) (UniProt O15164). As to the kind of experiment: Selectivity interaction (Human bromodomain panel (DSF assay)) EUB0000233b TRIM24.
Experiment [14] has as its target Serine/threonine-protein kinase/endoribonuclease IRE1 (Homo sapiens) (UniProt O75460). As to the kind of experiment: Selectivity interaction (KinomeScan (DiscoverX)) EUB0000595a ERN1. As to conditions: at 10 µM.
Experiment [15] has as its target Ribosomal protein S6 kinase beta-1 (Homo sapiens, UniProt P23443). As to the kind of experiment: Selectivity interaction (KinomeScan (DiscoverX)) EUB0000595a RPS6KB1. As to conditions: at 10 µM.
The subject of experiment [16] is eIF-2-alpha kinase GCN2 (Homo sapiens), Q9P2K8 [S808G]. As to the kind of experiment: Selectivity interaction (KinomeScan (DiscoverX)) EUB0000595a EIF2AK4. As to conditions: at 10 µM.
For experiment [17], the target named is Cyclin-dependent kinase 8 (Homo sapiens, UniProt P49336). As to conditions: at 10 µM.
Cyclin-dependent kinase 8, sequence (P49336 whole entry): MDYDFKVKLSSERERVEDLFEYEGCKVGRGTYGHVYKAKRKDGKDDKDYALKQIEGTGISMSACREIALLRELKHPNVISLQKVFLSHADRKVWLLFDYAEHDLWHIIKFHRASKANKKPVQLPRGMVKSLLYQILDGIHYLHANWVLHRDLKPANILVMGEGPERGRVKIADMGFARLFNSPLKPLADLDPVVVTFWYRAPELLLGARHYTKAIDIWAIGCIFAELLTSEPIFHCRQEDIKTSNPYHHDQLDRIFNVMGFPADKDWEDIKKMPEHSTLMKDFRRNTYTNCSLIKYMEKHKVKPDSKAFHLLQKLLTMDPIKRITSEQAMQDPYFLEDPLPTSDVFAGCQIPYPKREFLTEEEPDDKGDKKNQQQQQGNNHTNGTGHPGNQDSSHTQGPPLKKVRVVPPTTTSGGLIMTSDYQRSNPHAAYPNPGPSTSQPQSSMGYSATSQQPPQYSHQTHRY
Experiment [18] has as its target Serine/threonine-protein kinase PAK 3 (Homo sapiens) (UniProt O75914). As to the kind of experiment: Selectivity interaction (KinomeScan (DiscoverX)) EUB0001619a PAK3. As to conditions: at 1 µM.
A short description of experiment [19]: Selectivity interaction (KinomeScan (DiscoverX)) EUB0001619a CDPK1. As to conditions: at 1 µM.
The target of experiment [20] is Serine/threonine-protein kinase 16 (Homo sapiens, UniProt O75716). As to the kind of experiment: Selectivity interaction (KinomeScan (DiscoverX)) EUB0001619a STK16. As to conditions: at 1 µM.
Serine/threonine-protein kinase 16, sequence (O75716 whole entry, canonical isoform): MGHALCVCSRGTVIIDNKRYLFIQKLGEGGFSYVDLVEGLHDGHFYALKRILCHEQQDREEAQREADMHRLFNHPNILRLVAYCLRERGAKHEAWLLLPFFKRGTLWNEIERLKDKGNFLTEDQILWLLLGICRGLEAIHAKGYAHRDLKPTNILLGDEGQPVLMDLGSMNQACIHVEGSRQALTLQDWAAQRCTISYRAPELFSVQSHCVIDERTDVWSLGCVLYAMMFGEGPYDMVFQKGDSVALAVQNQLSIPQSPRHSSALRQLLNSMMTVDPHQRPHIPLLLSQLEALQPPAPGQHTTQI
For experiment [21], the target named is Phosphorylase b kinase gamma catalytic chain, skeletal muscle/heart isoform (Homo sapiens) (UniProt Q16816). As to the kind of experiment: Selectivity interaction (KinomeScan (DiscoverX)) EUB0000618a PHKG1. As to conditions: at 10 µM.

As usually defined, the IC50 is the concentration at which inhibition is half-maximal. Lower therefore signals higher potency.

SMILES strings stand for the structures.

Serine/threonine-protein kinase VRK2 (Homo sapiens), sequence (Q86Y07 whole entry): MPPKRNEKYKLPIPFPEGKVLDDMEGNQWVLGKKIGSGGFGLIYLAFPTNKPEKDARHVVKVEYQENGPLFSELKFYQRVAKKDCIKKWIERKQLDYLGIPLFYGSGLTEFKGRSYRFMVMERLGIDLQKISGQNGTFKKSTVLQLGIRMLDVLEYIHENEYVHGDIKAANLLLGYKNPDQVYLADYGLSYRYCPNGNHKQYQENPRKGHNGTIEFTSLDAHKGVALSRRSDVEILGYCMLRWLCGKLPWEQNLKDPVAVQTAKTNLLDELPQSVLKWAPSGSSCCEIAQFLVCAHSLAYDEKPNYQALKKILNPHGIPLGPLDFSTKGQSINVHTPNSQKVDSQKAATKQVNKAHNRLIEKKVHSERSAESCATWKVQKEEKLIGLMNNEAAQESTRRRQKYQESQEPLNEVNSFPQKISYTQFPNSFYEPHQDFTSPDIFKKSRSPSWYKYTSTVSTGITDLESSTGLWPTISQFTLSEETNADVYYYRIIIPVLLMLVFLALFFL
Serine/threonine-protein kinase PAK 3 (Homo sapiens), sequence (O75914 whole entry, looked up): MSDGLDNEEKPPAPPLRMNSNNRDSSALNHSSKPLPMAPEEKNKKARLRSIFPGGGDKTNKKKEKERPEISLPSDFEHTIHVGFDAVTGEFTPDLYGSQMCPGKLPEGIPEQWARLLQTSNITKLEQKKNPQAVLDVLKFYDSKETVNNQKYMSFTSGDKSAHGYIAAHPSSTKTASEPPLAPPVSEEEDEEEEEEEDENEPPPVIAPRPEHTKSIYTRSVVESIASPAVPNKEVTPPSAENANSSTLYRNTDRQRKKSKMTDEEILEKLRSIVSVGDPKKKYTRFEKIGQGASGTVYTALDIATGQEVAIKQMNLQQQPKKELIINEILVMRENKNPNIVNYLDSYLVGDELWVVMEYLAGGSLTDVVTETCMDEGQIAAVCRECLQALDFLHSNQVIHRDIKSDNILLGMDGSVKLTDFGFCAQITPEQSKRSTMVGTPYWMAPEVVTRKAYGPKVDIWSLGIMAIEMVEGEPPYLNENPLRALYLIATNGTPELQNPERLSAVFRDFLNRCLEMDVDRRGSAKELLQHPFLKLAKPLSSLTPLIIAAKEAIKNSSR
Calcium/calmodulin-dependent protein kinase type II subunit gamma (Homo sapiens), sequence (Q13555 whole entry): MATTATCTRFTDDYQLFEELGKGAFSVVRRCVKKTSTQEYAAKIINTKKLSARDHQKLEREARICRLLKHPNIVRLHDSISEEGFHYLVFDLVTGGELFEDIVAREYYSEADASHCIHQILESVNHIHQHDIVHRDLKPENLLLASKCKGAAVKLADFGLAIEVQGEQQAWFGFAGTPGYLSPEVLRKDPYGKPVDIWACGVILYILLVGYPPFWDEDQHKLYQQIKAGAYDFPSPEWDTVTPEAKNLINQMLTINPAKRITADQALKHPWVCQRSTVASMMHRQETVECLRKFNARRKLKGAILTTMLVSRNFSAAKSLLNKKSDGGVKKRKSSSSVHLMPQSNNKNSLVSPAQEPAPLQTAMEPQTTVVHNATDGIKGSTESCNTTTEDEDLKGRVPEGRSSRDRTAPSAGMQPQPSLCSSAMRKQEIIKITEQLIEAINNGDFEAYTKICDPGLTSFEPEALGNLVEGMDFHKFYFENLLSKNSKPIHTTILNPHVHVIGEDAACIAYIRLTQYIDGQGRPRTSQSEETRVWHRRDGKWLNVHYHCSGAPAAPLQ
Transcription intermediary factor 1-alpha (Homo sapiens), sequence (O15164 whole entry): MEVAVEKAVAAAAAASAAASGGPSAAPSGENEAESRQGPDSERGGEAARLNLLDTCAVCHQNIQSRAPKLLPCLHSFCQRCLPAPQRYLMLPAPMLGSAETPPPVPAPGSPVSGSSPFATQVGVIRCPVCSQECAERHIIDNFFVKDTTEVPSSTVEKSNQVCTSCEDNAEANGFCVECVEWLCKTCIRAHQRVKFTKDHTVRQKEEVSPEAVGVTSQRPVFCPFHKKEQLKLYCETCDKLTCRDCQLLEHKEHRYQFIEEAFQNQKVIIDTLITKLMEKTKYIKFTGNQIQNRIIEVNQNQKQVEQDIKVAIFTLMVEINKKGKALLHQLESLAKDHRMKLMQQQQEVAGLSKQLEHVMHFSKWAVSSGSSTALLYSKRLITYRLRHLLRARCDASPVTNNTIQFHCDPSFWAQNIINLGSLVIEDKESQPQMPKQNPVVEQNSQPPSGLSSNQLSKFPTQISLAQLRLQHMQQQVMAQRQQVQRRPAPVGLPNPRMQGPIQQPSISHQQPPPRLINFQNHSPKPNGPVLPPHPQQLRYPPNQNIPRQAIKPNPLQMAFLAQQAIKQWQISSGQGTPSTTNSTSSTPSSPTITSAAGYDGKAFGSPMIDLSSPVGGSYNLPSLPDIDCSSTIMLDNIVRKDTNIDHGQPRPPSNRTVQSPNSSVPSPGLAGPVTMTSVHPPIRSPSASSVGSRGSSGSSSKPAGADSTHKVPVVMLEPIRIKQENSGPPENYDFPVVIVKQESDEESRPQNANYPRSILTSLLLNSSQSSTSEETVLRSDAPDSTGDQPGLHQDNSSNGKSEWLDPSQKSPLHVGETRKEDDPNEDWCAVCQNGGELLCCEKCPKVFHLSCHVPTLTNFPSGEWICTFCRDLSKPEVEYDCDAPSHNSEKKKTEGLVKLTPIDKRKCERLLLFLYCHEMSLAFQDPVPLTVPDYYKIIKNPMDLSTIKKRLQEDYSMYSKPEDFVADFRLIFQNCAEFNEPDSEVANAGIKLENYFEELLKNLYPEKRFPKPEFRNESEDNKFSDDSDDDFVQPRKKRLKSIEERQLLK

For the molecule `Cc1ccc(-c2ccc3c(ccc4sc5c(c43)NC[C@@H](C)NC5=O)n2)cn1`, the % of inhibition in [1] was -1%.
Regarding `Cc1cc([C@@H](C)Nc2ccccc2C(=O)O)c2nc(N3CCOCC3)cc(=O)n2c1` [AZD-6482], in experiment [2], the % of control is 11%.
`COc1cc(Nc2nc(C)cc(-c3cnn4nc(OC)ccc34)n2)cc(C(F)(F)F)c1`: the % of control is 90% in [3] and 100% in [4].
The molecule `Cc1cc(F)c(C(=O)Nc2cccc(-c3nncn3C(C)C)n2)cc1-n1cnc(C2CC2)c1` yielded a % of control in [5] of 94%.
Take `C=CC(=O)Nc1cc(-n2c(=O)ccc3cnc4ccc(-c5ccc(NS(C)(=O)=O)cc5)cc4c32)ccc1C`: the % of control in [6] (at 1 µM) was 100%; in experiment [6] (at 10 µM) it was 74%.
Turning to `CNC(=O)Nc1ccc(-c2nc(N3CC4CCC(C3)O4)c3cnn(C4CCC5(CC4)OCCO5)c3n2)cc1`, in experiment [7], the % of inhibition is 1%. In experiment [8], the % of control was found to be 100%.
For `CC[C@@H]1[C@H](F)C(=O)N[C@@H]1COc1nccc2cc(C(N)=O)c(OC)cc12` [ZIMLOVISERTIB], the % of inhibition in experiment [9] (at 0.01 µM) was -16.6%; in [9] (at 0.04 µM), -6%; in [9] (at 0.2 µM), -28.4%; in [9] (at 1 µM), -14.8%; in experiment [9] (at 5 µM) it was 8.1%; in experiment [10], -7.7%. In addition, the % of inhibition in experiment [11] was determined as 5.9%.
Consider `CCc1cccc(CC)c1NC(=O)c1nn(C)c2c1CCc1cnc(Nc3ccc(C(=O)NC4CCN(C)CC4)cc3OC(F)(F)F)nc1-2`, for which the half-maximal inhibitory concentration (IC50) in experiment [12] was more than 10 µM.
Take `CN(C)CCCOc1ccc(-c2cc(NCCCn3cccn3)nc(S(C)(=O)=O)n2)cc1`: in [13], the dTM was less than 2 K.
In the case of `COCC(=O)NC/C=C/c1ccc2ncnc(Nc3ccc(Oc4ccc(C)nc4)c(C)c3)c2c1` [CP-724714], the % of control in [14] is 82%; in experiment [15] it was 65%; in experiment [16], 81%; in [17], 3%.
`N#Cc1cccc(-c2c[nH]c3ncnc(N4CCOCC4)c23)c1`: the % of control in [18] was 74%; in experiment [19], 78%; in experiment [20] it was 33%.
Consider `O[C@H]1CC[C@H](Nc2ncc3nc(Nc4c(F)cc(F)cc4F)n([C@H]4CCOC4)c3n2)CC1`, for which the % of control in experiment [21] came to 100%.

These data come from ChEMBL document CHEMBL5465560, “Selectivity Literature for EUbOPEN Chemogenomic Library” (2024).
